The source of these data is publication PMC12621043, “Un-LOK-ing a New Approach for Conformational Selective Targeting of STK10 (LOK)” (ACS Medicinal Chemistry Letters, 2025).

Experiment in all cases: DSF Tm panel
Common to all, as to assay type: binding
Holding throughout (details): 10 μM compound

The target of one experiment is T1, CHEK2A (Homo sapiens, UniProt O96017).
T1 construct: purchased in-house DSF kinase panel (SGC-style construct names; the trailing letter is the construct ID)
As for the experimental part: (§1) The synthesized urea-based derivatives were evaluated in a panel of kinases by differential scanning fluorescence (DSF) to investigate their selectivity profile. A positive ΔT m in the DSF assay indicates stabilization of the protein upon ligand binding in comparison to its apo state, with higher thermal shifts generally correlating with stronger binding. For this purpose, we used our internal kinase selectivity panel (∼90 kinases) along with staurosporine as a positive control. […] This was also reflected in the overall low selectivity score (S) throughout the series, which is determined by the ratio between the number of kinases that are stabilized above 5 °C and the total number of kinases tested (Figure ). Motivated by these findings, we further validated the entire series by orthogonal binding and activity assays to determine the in vitro and cellular potency and selectivity of the developed series in comparison to the selected reference compounds. […]
(§2) was performed as previously described.[1,2] Briefly, recombinant protein kinase domains at a concentration of 2 μM were mixed with 10 μM compound in a buffer containing 20 mM HEPES, […]
(§3) probe (1 µl per mL). Subsequently, temperature-dependent protein unfolding profiles were […]
(§4) emission filters were set to 465 nm and 590 nm, respectively. The temperature was raised with a step rate of 3 °C per minute. […]
(§5) inflection point of the transition curve. […]
(§6) previously.[3] In brief, STK10, STK3, STK4 and SLK were obtained as plasmids cloned in […]
(§7) Plasmids were transfected into
(§8) KD concentration taken from TracerDB (tracerdb.org)[4] were pipetted into white 384-well

The target in the next experiment is T2, ULK1A (Homo sapiens, UniProt O75385).
T2 construct: purchased in-house DSF kinase panel (SGC-style construct names; the trailing letter is the construct ID)
T2 sequence (O75385 1-283): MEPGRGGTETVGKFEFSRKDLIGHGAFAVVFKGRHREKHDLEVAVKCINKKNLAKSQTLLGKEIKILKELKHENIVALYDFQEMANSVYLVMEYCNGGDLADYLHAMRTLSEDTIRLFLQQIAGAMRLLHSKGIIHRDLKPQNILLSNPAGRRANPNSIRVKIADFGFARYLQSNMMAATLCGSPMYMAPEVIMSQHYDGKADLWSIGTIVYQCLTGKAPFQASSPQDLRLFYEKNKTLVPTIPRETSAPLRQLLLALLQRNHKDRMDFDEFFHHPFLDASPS
As for the experimental part: as §1, §2, §3, §4, §5, §6, §7, §8

The test system of the next experiment is TAF1A. As for the experimental part: as §1, §2, §3, §4, §5, §6, §7, §8
The next experiment concerns the target T3, FGFR1B (Homo sapiens, UniProt P11362).
T3 construct: purchased in-house DSF kinase panel (SGC-style construct names; the trailing letter is the construct ID)
As for the experimental part: as §1, §2, §3, §4, §5, §6, §7, §8

The next experiment concerns the target T4, PLK4A (Homo sapiens, UniProt O00444).
T4 construct: purchased in-house DSF kinase panel (SGC-style construct names; the trailing letter is the construct ID)
T4 sequence (O00444 2-275): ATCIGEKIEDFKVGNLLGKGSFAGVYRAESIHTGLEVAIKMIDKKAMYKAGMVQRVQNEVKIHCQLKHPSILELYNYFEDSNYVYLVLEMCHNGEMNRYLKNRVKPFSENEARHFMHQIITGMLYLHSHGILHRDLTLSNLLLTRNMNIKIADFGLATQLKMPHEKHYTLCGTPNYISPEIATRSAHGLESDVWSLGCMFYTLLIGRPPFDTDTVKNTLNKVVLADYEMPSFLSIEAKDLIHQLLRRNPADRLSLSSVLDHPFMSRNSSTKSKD
As for the experimental part: as §1, §2, §3, §4, §5, §6, §7, §8

A further experiment concerns the target T5, BMPR2A (Homo sapiens, UniProt Q13873).
T5 construct: purchased in-house DSF kinase panel (SGC-style construct names; the trailing letter is the construct ID)
T5 sequence (Q13873 27-1038): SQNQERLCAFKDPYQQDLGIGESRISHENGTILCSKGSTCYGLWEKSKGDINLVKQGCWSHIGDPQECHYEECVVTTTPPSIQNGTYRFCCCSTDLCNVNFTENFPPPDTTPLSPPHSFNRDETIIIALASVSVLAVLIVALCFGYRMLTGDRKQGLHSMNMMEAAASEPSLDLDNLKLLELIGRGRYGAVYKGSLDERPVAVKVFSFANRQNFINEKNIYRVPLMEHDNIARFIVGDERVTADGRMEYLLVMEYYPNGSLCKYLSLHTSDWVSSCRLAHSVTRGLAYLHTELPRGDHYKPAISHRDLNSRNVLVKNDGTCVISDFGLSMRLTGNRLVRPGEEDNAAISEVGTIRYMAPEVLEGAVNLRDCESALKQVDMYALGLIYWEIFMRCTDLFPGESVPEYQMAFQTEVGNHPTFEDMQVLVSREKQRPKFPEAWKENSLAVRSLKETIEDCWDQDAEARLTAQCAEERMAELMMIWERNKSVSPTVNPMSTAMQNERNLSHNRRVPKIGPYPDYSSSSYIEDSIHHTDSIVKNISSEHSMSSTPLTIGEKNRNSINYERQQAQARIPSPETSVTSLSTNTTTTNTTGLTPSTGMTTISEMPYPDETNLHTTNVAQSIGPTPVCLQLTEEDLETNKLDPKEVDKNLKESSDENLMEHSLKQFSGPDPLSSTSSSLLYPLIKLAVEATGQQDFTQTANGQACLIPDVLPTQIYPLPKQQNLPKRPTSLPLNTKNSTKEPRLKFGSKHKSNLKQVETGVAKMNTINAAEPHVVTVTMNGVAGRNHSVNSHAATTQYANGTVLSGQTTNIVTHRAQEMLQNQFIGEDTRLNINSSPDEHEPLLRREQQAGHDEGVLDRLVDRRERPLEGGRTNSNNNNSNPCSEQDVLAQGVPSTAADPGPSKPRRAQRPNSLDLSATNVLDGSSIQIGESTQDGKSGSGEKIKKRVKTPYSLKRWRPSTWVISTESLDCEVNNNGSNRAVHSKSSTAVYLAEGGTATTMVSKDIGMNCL
As for the experimental part: as §1, §2, §3, §4, §5, §6, §7, §8

In another experiment the target is T6, STK17AA (Homo sapiens, UniProt Q9UEE5).
T6 construct: purchased in-house DSF kinase panel (SGC-style construct names; the trailing letter is the construct ID)
T6 sequence (Q9UEE5 61-321): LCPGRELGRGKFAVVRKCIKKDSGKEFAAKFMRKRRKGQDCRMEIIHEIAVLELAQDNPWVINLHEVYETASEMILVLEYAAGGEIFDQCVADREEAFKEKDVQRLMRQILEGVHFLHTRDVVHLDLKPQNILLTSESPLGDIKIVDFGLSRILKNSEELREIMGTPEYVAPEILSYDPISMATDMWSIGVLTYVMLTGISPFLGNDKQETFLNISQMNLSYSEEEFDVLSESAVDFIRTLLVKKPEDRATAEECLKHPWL
As for the experimental part: as §1, §2, §3, §4, §5, §6, §7, §8

A further experiment has as its target T7, PAK4A (Homo sapiens, UniProt O96013).
T7 construct: purchased in-house DSF kinase panel (SGC-style construct names; the trailing letter is the construct ID)
Here is the method:
as §1, §2, §3, §4, §5, §6, §7, §8

The target in another experiment is T8, SRCA (Homo sapiens, UniProt P12931).
T8 construct: purchased in-house DSF kinase panel (SGC-style construct names; the trailing letter is the construct ID)
As for the experimental part:
as §1, §2, §3, §4, §5, §6, §7, §8

The next experiment deals with T9, BRAFA (Homo sapiens, UniProt P15056).
T9 construct: purchased in-house DSF kinase panel (SGC-style construct names; the trailing letter is the construct ID)

In a further experiment the target is T10, AKT3A (Homo sapiens, UniProt Q9Y243).
T10 construct: purchased in-house DSF kinase panel (SGC-style construct names; the trailing letter is the construct ID)

For the next experiment, the target named is T11, EPHA7A (Homo sapiens, UniProt Q15375).
T11 construct: purchased in-house DSF kinase panel (SGC-style construct names; the trailing letter is the construct ID)

Usually ΔTm stands for the change in melting temperature against a reference sample.

T1 sequence (O96017 210-531): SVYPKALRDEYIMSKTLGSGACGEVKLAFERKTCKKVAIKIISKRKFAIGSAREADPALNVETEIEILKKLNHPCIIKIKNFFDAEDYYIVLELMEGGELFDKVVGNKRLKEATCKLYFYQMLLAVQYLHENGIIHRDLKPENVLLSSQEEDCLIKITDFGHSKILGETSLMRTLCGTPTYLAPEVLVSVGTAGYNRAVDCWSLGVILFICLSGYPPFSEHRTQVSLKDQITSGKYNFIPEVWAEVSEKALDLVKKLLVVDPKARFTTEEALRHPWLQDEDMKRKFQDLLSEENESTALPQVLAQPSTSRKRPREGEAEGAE
T11 sequence (Q15375 590-899): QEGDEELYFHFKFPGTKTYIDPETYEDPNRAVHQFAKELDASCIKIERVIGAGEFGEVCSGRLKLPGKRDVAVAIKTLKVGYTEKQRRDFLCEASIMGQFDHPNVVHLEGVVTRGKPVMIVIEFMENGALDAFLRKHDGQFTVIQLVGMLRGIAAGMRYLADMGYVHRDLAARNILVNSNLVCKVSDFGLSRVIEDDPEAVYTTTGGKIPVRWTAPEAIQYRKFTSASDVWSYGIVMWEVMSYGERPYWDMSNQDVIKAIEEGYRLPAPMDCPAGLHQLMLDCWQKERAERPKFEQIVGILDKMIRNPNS
T10 sequence (Q9Y243 148-479): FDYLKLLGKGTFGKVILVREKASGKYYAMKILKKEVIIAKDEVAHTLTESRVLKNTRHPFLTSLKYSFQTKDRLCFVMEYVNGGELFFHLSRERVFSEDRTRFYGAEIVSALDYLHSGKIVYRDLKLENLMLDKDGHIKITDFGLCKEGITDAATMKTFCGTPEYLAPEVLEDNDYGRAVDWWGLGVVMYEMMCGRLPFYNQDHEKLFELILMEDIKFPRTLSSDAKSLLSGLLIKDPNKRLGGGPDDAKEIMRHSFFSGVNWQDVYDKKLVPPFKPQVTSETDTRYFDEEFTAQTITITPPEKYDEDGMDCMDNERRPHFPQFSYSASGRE
T7 sequence (O96013 291-591): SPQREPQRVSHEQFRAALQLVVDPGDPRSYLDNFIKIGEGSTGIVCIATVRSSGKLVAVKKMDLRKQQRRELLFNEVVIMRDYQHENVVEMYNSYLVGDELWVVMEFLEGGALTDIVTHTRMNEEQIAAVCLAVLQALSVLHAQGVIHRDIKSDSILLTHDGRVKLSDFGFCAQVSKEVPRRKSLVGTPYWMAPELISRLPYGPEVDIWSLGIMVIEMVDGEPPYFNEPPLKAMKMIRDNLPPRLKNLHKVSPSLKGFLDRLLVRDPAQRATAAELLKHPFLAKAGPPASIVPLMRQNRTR
T8 sequence (P12931 254-536): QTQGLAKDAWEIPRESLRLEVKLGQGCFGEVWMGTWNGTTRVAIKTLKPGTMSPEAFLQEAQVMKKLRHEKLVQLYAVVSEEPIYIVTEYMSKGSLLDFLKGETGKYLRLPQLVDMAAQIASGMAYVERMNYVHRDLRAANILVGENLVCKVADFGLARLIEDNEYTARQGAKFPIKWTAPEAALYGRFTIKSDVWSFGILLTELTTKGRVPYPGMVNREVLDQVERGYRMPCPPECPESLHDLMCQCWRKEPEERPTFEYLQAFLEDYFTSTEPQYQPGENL
T3 sequence (P11362 456-767): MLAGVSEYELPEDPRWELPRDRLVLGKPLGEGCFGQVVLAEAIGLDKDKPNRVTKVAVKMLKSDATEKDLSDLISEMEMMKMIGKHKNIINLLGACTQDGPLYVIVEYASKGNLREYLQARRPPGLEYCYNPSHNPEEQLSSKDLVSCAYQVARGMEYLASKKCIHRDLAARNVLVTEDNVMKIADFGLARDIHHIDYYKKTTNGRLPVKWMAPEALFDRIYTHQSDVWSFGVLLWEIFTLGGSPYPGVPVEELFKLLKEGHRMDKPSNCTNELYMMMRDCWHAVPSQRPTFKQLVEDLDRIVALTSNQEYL
T9 sequence (P15056 448-723): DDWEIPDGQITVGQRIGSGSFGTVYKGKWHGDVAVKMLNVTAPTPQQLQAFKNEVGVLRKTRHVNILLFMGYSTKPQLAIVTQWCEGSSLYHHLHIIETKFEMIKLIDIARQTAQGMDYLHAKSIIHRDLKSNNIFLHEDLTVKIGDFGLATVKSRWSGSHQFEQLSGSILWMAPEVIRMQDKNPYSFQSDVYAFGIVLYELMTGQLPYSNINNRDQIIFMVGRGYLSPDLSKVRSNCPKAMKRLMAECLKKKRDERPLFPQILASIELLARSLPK

For the molecule `O=C(NCc1ccccc1)Nc1ccc2cc1OCCOCCNc1ccn3ncc-2c3n1` [compound 16], the ΔTm at 10 µM at CHEK2A came to 6.5 °C; at ULK1A, 0.6 °C; at FGFR1B, 2.4 °C; at PLK4A, 4.1 °C; on BMPR2A it was 4.4 °C; on STK17AA, 4.9 °C. For the same molecule, the ΔTm at 10 µM at PAK4A is -0.2 °C; at SRCA, 2.5 °C; on BRAFA, 0.8 °C; at AKT3A it was 0 °C; at EPHA7A, -0.1 °C. Also, the “ΔTm TAF1A” value in the experiment with TAF1A was 0,4 °C.
Turning to `O=C(NCc1ccccc1Cl)Nc1ccc2cc1OCCOCCNc1ccn3ncc-2c3n1` [compound 17], the ΔTm at 10 µM at CHEK2A is 5.3 °C; on ULK1A, 0.3 °C; at FGFR1B, 0.6 °C; on PLK4A, 3.9 °C; at BMPR2A it was 2.6 °C; on STK17AA, 2.3 °C. Besides, the ΔTm at 10 µM was 0 °C on PAK4A; 1.8 °C on SRCA; 0.8 °C at BRAFA; -0.3 °C at AKT3A; 0.4 °C on EPHA7A. Also, the “ΔTm TAF1A” value in the experiment with TAF1A was 0,5 °C.
Turning to `O=C(NCc1cccc(Cl)c1)Nc1ccc2cc1OCCOCCNc1ccn3ncc-2c3n1` [compound 18], the ΔTm at 10 µM on CHEK2A is 3.6 °C; at ULK1A, 0.3 °C; on FGFR1B it was 2 °C; at PLK4A, 3.2 °C; on BMPR2A, 2.9 °C; on STK17AA, 5.1 °C. Besides, the ΔTm at 10 µM is 0.1 °C at PAK4A; 2.6 °C on SRCA; 0.6 °C at BRAFA; -0.4 °C on AKT3A; 0.8 °C at EPHA7A. Further, the “ΔTm TAF1A” value in the experiment on TAF1A was 0,5 °C.
For `O=C(NCc1ccc(Cl)cc1)Nc1ccc2cc1OCCOCCNc1ccn3ncc-2c3n1` [compound 19], the ΔTm at 10 µM on CHEK2A was found to be 4.5 °C; at ULK1A it was 0.4 °C; at FGFR1B, 1.5 °C; on PLK4A it was 2.5 °C; on BMPR2A, 2.3 °C; on STK17AA, 2 °C. Further, the ΔTm at 10 µM at PAK4A was 0.1 °C; on SRCA it was 2.1 °C; on BRAFA it was 0.8 °C; at AKT3A, -0.4 °C; at EPHA7A it was 0.4 °C. Also, the “ΔTm TAF1A” value in the experiment with TAF1A was -0,4 °C.
Consider `O=C(NCc1ccc(Cl)cc1Cl)Nc1ccc2cc1OCCOCCNc1ccn3ncc-2c3n1` [compound 20], for which the ΔTm at 10 µM at CHEK2A was determined as 3.6 °C; on ULK1A it was 0.6 °C; on FGFR1B, 0.9 °C; on PLK4A it was 2.8 °C; on BMPR2A it was 1.1 °C; at STK17AA, 1.6 °C. Moreover, the ΔTm at 10 µM was determined as 0.8 °C at PAK4A; 1.2 °C on SRCA; 0.4 °C at BRAFA; 0.4 °C on AKT3A; 1 °C at EPHA7A. In addition, the “ΔTm TAF1A” value in the experiment on TAF1A was 0,6 °C.
`O=C(NCc1ccc(Cl)cc1F)Nc1ccc2cc1OCCOCCNc1ccn3ncc-2c3n1` [compound 21]: the ΔTm at 10 µM on CHEK2A is 5 °C; on ULK1A it was 0.2 °C; on FGFR1B, 1.1 °C; at PLK4A, 2.6 °C; on BMPR2A, 1.8 °C; on STK17AA, 2 °C. Further, the ΔTm at 10 µM on PAK4A is 0.9 °C; at SRCA, 2.6 °C; on BRAFA, 0.5 °C; at AKT3A, -0.3 °C; at EPHA7A it was 1.9 °C. Further, in the experiment on TAF1A, the “ΔTm TAF1A” value is 0,4 °C.
Turning to `Cc1cc(Cl)ccc1CNC(=O)Nc1ccc2cc1OCCOCCNc1ccn3ncc-2c3n1` [compound 23], the ΔTm at 10 µM stood at 5.7 °C at CHEK2A; 0.3 °C at ULK1A; 1.1 °C on FGFR1B; 2.8 °C on PLK4A; 1.5 °C on BMPR2A; 0.7 °C at STK17AA. Further, the shift in melting temperature (ΔTm) at 10 µM on PAK4A stood at 1.2 °C; at SRCA, 1.5 °C; on BRAFA, 0.5 °C; on AKT3A it was 0.9 °C; on EPHA7A it was 1 °C. Further, the “ΔTm TAF1A” value with TAF1A is 0,6 °C.
As to `Cc1cc(Br)ccc1CNC(=O)Nc1ccc2cc1OCCOCCNc1ccn3ncc-2c3n1` [compound 24], the shift in melting temperature (ΔTm) at 10 µM on CHEK2A was found to be 8.6 °C; at ULK1A, 0 °C; on FGFR1B, 1.2 °C; at PLK4A it was 2.3 °C; at BMPR2A, 2.3 °C; on STK17AA, 2.3 °C. In addition, the ΔTm at 10 µM on PAK4A was 1.9 °C; on SRCA it was 1.7 °C; on BRAFA, -0.3 °C; on AKT3A, 0.3 °C; on EPHA7A, 2 °C. In the experiment with TAF1A, the “ΔTm TAF1A” value was 0,1 °C.
`Cc1ccc(F)cc1CNC(=O)Nc1ccc2cc1OCCOCCNc1ccn3ncc-2c3n1` [compound 26]: the thermal shift (ΔTm) at 10 µM on CHEK2A is 7.2 °C; on ULK1A, 0.1 °C; at FGFR1B, 1.9 °C; at PLK4A, 3.3 °C; on BMPR2A, 3.4 °C; at STK17AA, 5.2 °C. Moreover, the ΔTm at 10 µM was 1.8 °C on PAK4A; 2.2 °C on SRCA; -0.6 °C on BRAFA; 1.8 °C at AKT3A; 2 °C at EPHA7A. In addition, in the experiment on TAF1A, the “ΔTm TAF1A” value was 0,1 °C.
